Columns and labels:
[1] = cited from earlier work
mouse ear skin = experiment: Eosinophil tissue infiltration: EPO activity in mouse ear skin after topical LTB4 plus PGE2; type: in vivo; conditions: topical LXa 10 μg per ear, LTB4 1 μg + PGE2 1 μg, 13-16 h
Procedure: FIG. 6. Expression of human ALX in transgenic mice prevents eosinophil trafficking. LTB4 (1 μg) and PGE2 (1 μg) were topically applied (13-16 h) to mouse ear skin and EPO activity in tissue biopsies was determined by bromination of HPA (see Methods). Values represent the mean±SEM for pmoles Br-HPA per μg total protein for Non-tg littermates (n=6) or BLT-tg (n=2) mice in the absence or presence of topical LXa (10 μg per ear) and 2 separate ALX-tg lines (n=4). *P<0.05 by Student's T-test compared to littermate controls.
Eosinophil tissue infiltration. […] EPO activity was monitored by mono-bromination of HPA (Br-HPA). […] Trimethyl silylated HPA, Br-HPA and d4-tyrosine were detected by GC-MS (GC model #6890, MS model #5973, Hewlett Packard, San Fernando, Calif.). […] EPO activity was quantitated by percent conversion of HPA to Br-HPA, taking into account the recovery of the internal standard (>80%) and normalized for the samples' protein content (determined by BioRad protein reagent) (BioRad, Hercules, Calif.).

OVA sensitized mice = experiment: Lung histopathology of OVA sensitized and aerosol challenged mice; type: in vivo, mouse (BALB/c); conditions: LXa 10 μg; OVA-allergic mice
Procedure: FIG. 2. Lung histopathology from LXa treated mice. Mice were sensitized and aerosol challenged with OVA in the absence (left column) or presence (right column) of LXa (10 μg). Representative (n=3) lung tissue sections (magnifications: ×40 (a,b), ×100 (d), ×200 (c,e) and ×400 (f)) were obtained from formalin-fixed, paraffin-embedded lung tissue, prepared and stained with hematoxylin and eosin. Arrows denote eosinophils; br, bronchus; v, vessel.
Sensitization and challenge protocols. Five to seven week old male BALB/c (Charles River Laboratories, Wilmington, Mass.) or female hCD11b-hALX FvB transgenic mice were housed in isolation cages under viral antibody-free conditions. […] On day 18, 24 h after the last aerosol challenge, airway responsiveness to intravenous methacholine (33-1000 μg/kg) was measured, bilateral bronchoalveolar lavage (BAL) (2 aliquots of 1 ml PBS plus 0.6 mM EDTA) was performed and tissues (whole blood, lungs, mediastinal lymph nodes and spleen) were harvested for histological analysis. Lung resistance (RL) was measured using a sealed constant mass plethysmograph. […] For mice studied using a whole body plethysmograph to assess airway responsiveness (Buxco), each mouse was placed into a chamber and box pressure/time waveform was analyzed to yield the indicator of airflow obstruction, enhanced pause (Penh). […] Readings were initiated at 3 min and continued for 12 min. […]

[2] = system: murine dorsal air pouches; conditions: murine dorsal air pouches (refs. 7, 16); cited from earlier work

**Q.** Which results are given for `COC(=O)CCC[C@H](O)[C@H](O)/C=C/C=C/C=C\C=C\[C@H](O)COc1ccc(F)cc1` [LXa, 15-epi,16-para-fluoro-phenoxy-LXA4-methyl ester]?
**A.** metabolic inactivation [1]: resists metabolic inactivation; eicosanoid-stimulated skin EPO activity (mouse ear skin; Non-tg mice): inhibited eicosanoid-stimulated skin EPO activity; eicosanoid-stimulated skin EPO activity (mouse ear skin; mice with increased expression of LTB4 receptors (BLT-tg)): inhibited eicosanoid-stimulated skin EPO activity; lung tissue leukocyte infiltration (tissue eosinophils and lymphocytes) and vascular injury (OVA sensitized mice): significantly reduced leukocyte infiltration; neutrophil accumulation and exudate formation [2]: blocks neutrophil accumulation and exudate formation
